Laboratory results reported in paper PMC4310642 (Journal of Medicinal Chemistry, 2014).

Legend:
[1] = system: PKCδ C1b domain S10R mutant; type: binding
[2] = molecular target: PKCδ C1b domain P11R mutant (Mus musculus, UniProt P28867, P241R); assay: Competitive [20-3H]PDBu binding to GST-C1b domain, P11R
[3] = molecular target: PKCδ C1b domain N7R mutant (Mus musculus, UniProt P28867, N237R); assay: Competitive [20-3H]PDBu binding to GST-C1b domain, N7R
[4] = molecular target: PKCδ C1b domain N7R/S10R/L20R triple mutant (Mus musculus, UniProt P28867, L250R/N237R/S240R); assay: Competitive [20-3H]PDBu binding to GST-C1b domain, N7R/S10R/L20R
Sequence of PKCδ C1b domain N7R/S10R/L20R triple mutant (P28867 230-280 N237R/S240R/L250R): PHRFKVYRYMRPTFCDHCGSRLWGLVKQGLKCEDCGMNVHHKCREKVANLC

Sequence of PKCδ C1b domain N7R mutant (P28867 230-280 N237R): as the sequence (P28867 230-280 N237R/S240R/L250R) above, with R11S, R21L counted along it
Sequence of PKCδ C1b domain P11R mutant (P28867 230-280 P241R): as the sequence (P28867 230-280 N237R/S240R/L250R) above, with R8N, R11S, P12R, R21L counted along it

## CCCC(=O)O[C@@H]1[C@@H](C)[C@@]2(O)[C@@H](C=C(CO)C[C@]3(O)C(=O)C(C)=C[C@@H]23)[C@@H]2C(C)(C)[C@]12OC(=O)CCC [PDBu, phorbol 12,13-dibutyrate]
[1]
  binding to S10R compared to the wild-type δC1B domain: essentially the same
[2]
  binding to P11R weaker than to the wild-type δC1B domain: about 5 fold
[3]
  binding to N7R weaker than to the wild-type δC1B domain: about 5 fold

## CC(C)CC(C/C=C1\CC(CO)(COC(=O)C(C)(CO)CO)OC1=O)CC(C)C (stereo not shown) [13-E]
[4]
  reduction in binding affinity with the triple mutant N7R/S10R/L20R compared to the wild-type: no further loss of affinity
